{
  "source": "patent US6492427B2",
  "about": "“Methods for treating multiple sclerosis” (priority 1998, dated 2002)",
  "type_in_all_cases": "cell-based, rat",
  "key": {"oligodendroglial cells": {"tested_on": "oligodendroglial cells", "experiment": "Nuclear integrity assay: counts of intact nuclei (Zap-oglobin lysis) after insulin and IGF-I withdrawal", "details": "for counts of intact nuclei compared to BM: alone in BM at 10^−5, 10^−7 and 10^−9 M; for numbers of intact nuclei for IGF-I and insulin withdrawn cells: alone in BM, actinomycin 1, 2.5, 5 μg/ml, cycloheximide 1, 5, 10, 50 μg/ml", "method": "In order to examine insulin and IGF-I dependent survival of the cells of the oligodendroglial lineage, cells were trophically deprived for a period of 24 hours at 16 DIV.\nCells were trophically withdrawn by replacing the media with a serum free, chemically-defined base media (BM) lacking insulin and IGF-I (Bottenstein et al., 1988). The base media consisited of DMEM supplemented with penicillin (50 IU/ml); streptomycin (50 μg/ml); 1 mM sodium pyruvate; 50 μg/ml transferrin; 0.005 μg/ml sodium selenite; 16 μg/ml putrescine; 0.006 μg/ml progesterone and 0.1 mg/ml bovine serum albumin. All the cells were washed with BM twice before exposing them to individual treatment conditions. Control cells were washed and placed in BM supplemented with 2.5 ng/ml IGF-I and 5 μg/ml insulin to form the insulin media (IM).\nCell survival in the cultures was assessed according to the method of (Soto and Sonnenschein, 1985). After washing and treatment in BM, BM-D9, IM and IM-D9 for 24 h, cells were harvested, centrifuged at 500 rpm for 5 min and the supernatant removed. Pelleted cells were then lysed with 200 μl of 10% Zap-oglobin (Coulter Electronics, FL, USA). The lysing agent is a detergent containing solution that lyses the plasma membrane but leaves the nuclei intact. The lysed solution was collected and vortexed. A small volume (10 μl) of the solution was removed and intact nuclei were counted using a haemocytometer. To be counted, nuclei had to show a completely intact smooth outer border. Counts of intact nuclei were pooled for three or four experiments (a total of 15-20 wells were used for each treatment condition). each treatment condition).\nOLs at 16 DIV were exposed to the different drug treatment conditions for 24 h, following which, the nuclear integrity assay was performed. On the day of the treatment, the cells growing in Nunc 24 well plates were washed twice with base media. Each treatment well received 50 μl of the appropriate drug solution and the total volume in the well was made up to 500 μl with either BM or IM.\nNuclear counts were obtained from quadruplicate wells per treatment condition and the experiment was repeated twice. OLs were exposed to the following treatment conditions: 1) IM, 2) BM, 3) BM-D9, 4) (−)-Desmethyldeprenyl (BM-Ds9), 5) IM-D9 and 6) IM +10^−9 M (−)-Desmethyldeprenyl (IM-Ds9).\nThe treatment conditions with the three general cytochrome P450 blockers were: 1) BM+Proadifen (2.5, 10, 25 μM), 2) BM-D9+Proadifen (2.5, 10, 25 μM), 3) BM-Ds9+Proadifen (2.5, 10, 25 μM), 4) BM+Metapyrone (50 μM), 5) BM-D9+Metapyrone (50 μM), 6) BM-Ds9+Metapyrone (50 μM), 7) BM+Piperonyl butoxide (100 μM), 5) BM-D9+Piperonyl butoxide (100 μM), 6) BM-Ds9+Piperonyl butoxide (100 μM).\nOLs at 16 DIV were washed twice with base media and exposed either to actinomycin, a transcriptional blocker or cycloheximide, a translational blocker for 24 h. […] Actinomycin and cycloheximide were either used with base media alone or in combination with 10^−9 M (−)-desmethyldeprenyl. Each treatment well received 50 μl of the drug solution and the total volume of the well was made up to 500 μl with base media.\nCounts of intact nuclei, obtained from quadruplicate wells per treatment condition were used to quantitate the effects of the transcriptional and translational blockers. Each experiment was repeated twice for experimental density series-II."}, "[1]": {"tested_on": "mitochondrial membrane potential (ΔψM) of oligodendroglial cells", "experiment": "CMTMR estimation of mitochondrial membrane potential by confocal microscopy", "set-up": "ΔΨM (18 h): key to the marks not given beside the values", "details": "for capacity of (−)-deprenyl and (−)-desmethyldeprenyl to maintain ΔψM in OL mitochondria: 10^−5 M with 10^−9 M (−)-deprenyl or (−)-desmethyldeprenyl in BM; for increases in ΔψM induced by (−)-deprenyl on OL mitochondria: proadifen 10 μM, metyapone 50 μM or piperonyl butoxide 100 μM with 10^−9 M (−)-deprenyl in BM", "method": "The ΔψM was assessed by the addition of a lipophilic, potentiometric dye, chloromethyl-tetramethylrhodamine methyl ester (CMTMR, Mitotracker Orange™ Molecular Probes, Eugene, Oreg.). The CMTMR dye reacts with the thiol groups on proteins and peptides to form aldehyde fixable conjugates. Entry of the negatively charged mitochondrial matrix compartment is proportional to the difference in the membrane potential. Therefore, the CMTMR fluorescence labels the mitochondrial membrane potential generated due to the negativity difference between the mitochondrial matrix and the outside of the mitochondria. Upon cell fixation, CMTMR remains in the mitochondria and is not washed out unlike other mitochondrial potentiometric dyes like rhodamine123.\nOligodendrocytes at 16 DIV were placed in trophically deprived BM for 18 h or treated with BM-D9 or BM-Ds9. […] The cells were incubated in CMTMR at 37° C. for 15 min. The cells were then fixed with 4% cold paraformaldehyde on ice for 30 min and washed twice with 0.1M PBS. Consequently, the coverslips were mounted on glass slides with Aquamount (Gurr, England).\nIndividual mitochondria labeled with CMTMR were resolved by confocal microscopy. A Leica true confocal scanning (TCS) 4D microscope coupled to an argon-krypton laser (Omnichrome, USA) was used for cell imaging. A pinhole size of 20 with an excitation filter wavelength of 568 nm and an emission filter wavelength of 590 nm was used to image the CMTMR labeled mitochondria. Each field of the coverslip was imaged using an oil-immersion, 100 X, 1.3 N.A. objective at 512 by 512 by 8 bits per pixel resolution, background offset of −1 and line averaged 32 times in bi-directional line scan mode. Care was taken not to exceed the dynamic range of the gray value display. The confocal images obtained were saved on an optical drive in a tagged image file format (TIFF).\nFluorescence intensity of individual mitochondria was measured using the Metamorph™ program. Metamorph™ compiles measurements of objects in a 8-bit image ranging from gray values 0 (background) and 255. In order to obtain fluorescence intensity measures, a rectangular region tool of 2×2 pixels was used to measure two randomly selected areas within each mitochondrion. A total of ten mitochondria obtained equally from all the regions of each cell were measured within each image. About 20 images were analyzed for each treatment condition thereby giving a sum of about 400 mitochondrial fluorescence intensity measures. The raw values were then further graphed and analyzed with the Microcal Origin 4.1 program. Frequency count was performed on the data, which classified the data in ordered bins. A frequency distribution was obtained with lower bin value set at 0 and higher bin value set at 260."}, "[2]": {"tested_on": "MBP, PLP, GC and CNPase-I", "experiment": "Western blot of PROL and OL marker proteins", "details": "BM + 10^−9 M, 18 h"}},
  "note": "Entries after “also recorded” stand apart in the source; their conditions may differ. *1 amine or outer side, *2 acyl side, *3 side chain or, on linkers, in order; H or OH if unused. Where a SMILES comes first, the peptide text is derived from it. Bridges are numbered along the chain shown (N, C = ends). Roman numbers before positions name the chains, in order. [ ]: non-standard residue; d: D form. Actinocin(9to1) = Cc1c2oc3c(C)ccc(C(=O)[*:1])c3nc-2c(C(=O)[*:2])c(N)c1=O; NMeV = CN[C@H](C(=O)O)C(C)C; Sar = CNCC(=O)O",
  "data": [
    {"smiles": "C#CCN(C)C(C)Cc1ccccc1", "note": "(single isomer, unassigned; (+)) [(+)-deprenyl]", "values": [
      {"measurement": "concentration-survival relationship, numbers of intact nuclei", "setting": "oligodendroglial cells; BM with 10^−5, 10^−7 and 10^−9 M, 24 h", "value": "did not alter the numbers of intact nuclei from the values found for BM"}
    ]},
    {"smiles": "CC(N)Cc1ccccc1", "note": "(single isomer, unassigned; (-)) [(−)-amphetamine]", "values": [
      {"measurement": "capacity of (−)-deprenyl to increase survival of oligodendroglial cells", "setting": "oligodendroglial cells; 10^−3, 10^−5, 10^−7, 10^−9 M in combination with 10^−9 M (−)-deprenyl in BM, 24 h", "value": "markedly reduced the capacity of (−)-deprenyl to increase the survival"},
      {"measurement": "capacity of 10^−9 M (−)-desmethyldeprenyl to increase survival of oligodendroglial cells", "setting": "oligodendroglial cells; 10^−5 M with 10^−9 M (−)-desmethyldeprenyl in BM, 24 h", "value": "completely eliminated the capacity of 10^−9 M (−)-desmethyldeprenyl to increase the survival"},
      {"measurement": "counts of intact nuclei compared to BM", "setting": "oligodendroglial cells; 24 h", "value": "did alter the counts of intact nuclei"},
      {"measurement": "capacity of (−)-deprenyl and (−)-desmethyldeprenyl to maintain ΔψM in OL mitochondria", "setting": "[1]; 18 h", "value": "reduce the capacity of (−)-deprenyl and (−)-desmethyldeprenyl to maintain ΔψM"}
    ]},
    {"smiles": "C#CCN[C@H](C)Cc1ccccc1", "note": "[(−)-desmethyldeprenyl]", "values": [
      {"measurement": "increase in counts of intact nuclei compared to those for BM", "setting": "oligodendroglial cells; BM + 10^−9 M, 24 h, metabolite experiments (FIG. 11)", "value": 197, "unit": "%"},
      {"measurement": "numbers of intact nuclei relative to IM", "setting": "oligodendroglial cells; IM + 10^−9 M, 24 h, metabolite experiments (FIG. 11)", "value": 103, "unit": "%"},
      {"measurement": "Survival (24 h)", "setting": "oligodendroglial cells; OL cell survival, relative to control (IM)", "value": "++++"},
      {"measurement": "mitochondrial CMTMR fluorescence distributions (ΔψM) in ASTs, PROLs and OLs", "setting": "[1]; BM + 10^−9 M, 18 h", "value": "not significantly different to those found for IM; also recorded: prevented the decrease in ΔψM"},
      {"measurement": "ΔΨM (18 h)", "setting": "[1]; OL, relative to control (IM)", "value": "++++"},
      {"measurement": "band densities for MBP, CNP-ase I and PLP compared to IM", "setting": "[2]", "value": "exceed those for IM"},
      {"measurement": "immunodensity of marker proteins (MBP, PLP, GC, CNPase-I) compared to BM", "setting": "[2]", "value": "marked increase in immunodensity compared to BM"}
    ]},
    {"smiles": "CN[C@@H](C)Cc1ccccc1", "note": "[(−)-methamphetamine]", "values": [
      {"measurement": "increase in numbers of intact nuclei induced by (−)-deprenyl", "setting": "oligodendroglial cells; 10^−5, 10^−7, 10^−9 M in combination with 10^−9 M (−)-deprenyl in BM, 24 h", "value": "significantly reduced the increase in numbers of intact nuclei induced by (−)-deprenyl in a graded concentration dependent manner"},
      {"measurement": "counts of intact nuclei compared to BM", "setting": "oligodendroglial cells; 24 h", "value": "did alter the counts of intact nuclei"},
      {"measurement": "capacity of (−)-deprenyl and (−)-desmethyldeprenyl to maintain ΔψM in OL mitochondria", "setting": "[1]; 18 h", "value": "reduce the capacity of (−)-deprenyl and (−)-desmethyldeprenyl to maintain ΔψM"}
    ]},
    {"smiles": "Cc1c2oc3c(C)ccc(C(=O)N[C@@H]4C(=O)N[C@H](C(C)C)C(=O)N5CCC[C@H]5C(=O)N(C)CC(=O)N(C)[C@@H](C(C)C)C(=O)O[C@@H]4C)c3nc-2c(C(=O)N[C@@H]2C(=O)N[C@H](C(C)C)C(=O)N3CCC[C@H]3C(=O)N(C)CC(=O)N(C)[C@@H](C(C)C)C(=O)O[C@@H]2C)c(N)c1=O", "note": "[actinomycin] (I: T[dV]P[Sar][NMeV] / II: T[dV]P[Sar][NMeV]; ester I:1-I:C, II:1-II:C; linker I:N-II:N via Actinocin(9to1))", "values": [
      {"measurement": "numbers of intact nuclei for IGF-I and insulin withdrawn cells", "setting": "oligodendroglial cells; 24 h", "value": "Neither agent altered the numbers of intact nuclei"}
    ]},
    {"smiles": "C[C@@H]1C[C@@H]([C@H](O)CC2CC(=O)NC(=O)C2)C(=O)[C@@H](C)C1", "note": "[cycloheximide]", "values": [
      {"measurement": "numbers of intact nuclei for IGF-I and insulin withdrawn cells", "setting": "oligodendroglial cells; 24 h", "value": "Neither agent altered the numbers of intact nuclei"}
    ]},
    {"smiles": "CC(C)(C(=O)c1cccnc1)c1cccnc1", "note": "[metapyrone, 2-methyl-1,2-di(3-pyridyl)-1-propanone]", "values": [
      {"measurement": "increases in ΔψM induced by (−)-deprenyl on OL mitochondria", "setting": "[1]; 18 h", "value": "blocked the increases in ΔψM induced by (−)-deprenyl"}
    ]},
    {"smiles": "CCCC(C(=O)OCCN(CC)CC)(c1ccccc1)c1ccccc1", "note": "[proadifen]", "values": [
      {"measurement": "number of intact nuclei when compared to IM", "setting": "oligodendroglial cells; proadifen 2.5 μM with 10^−9 M (−)-deprenyl in BM, 24 h", "value": 144, "unit": "%"},
      {"measurement": "number of intact nuclei when compared to IM", "setting": "oligodendroglial cells; proadifen 10 μM with 10^−9 M (−)-deprenyl in BM, 24 h", "value": 109, "unit": "%"},
      {"measurement": "number of intact nuclei when compared to IM", "setting": "oligodendroglial cells; proadifen 25 μM with 10^−9 M (−)-deprenyl in BM, 24 h", "value": 91, "unit": "%"},
      {"measurement": "intact nuclei values for BM only", "setting": "oligodendroglial cells; proadifen 2.5, 10, 25 μM alone in BM, 24 h", "value": "did alter the values for BM only"},
      {"measurement": "increase in intact nuclei induced by 10^−9 M (−)-desmethyldeprenyl", "setting": "oligodendroglial cells; proadifen 2.5, 10, 25 μM with 10^−9 M (−)-desmethyldeprenyl in BM, 24 h", "value": "did not reduce the increase in intact nuclei"},
      {"measurement": "increases in ΔψM induced by (−)-deprenyl on OL mitochondria", "setting": "[1]; 18 h", "value": "blocked the increases in ΔψM induced by (−)-deprenyl"}
    ]}
  ]
}
